This is an account of results in US20130338199A1, “Novel Niacin Compositions for Reduction of Amyloid Beta Peptide 42 (AB42) Production and for Treatment of Alzheimer's Disease” (priority 2008, published 2013).

For orientation: IC50 means the concentration that gives 50% inhibition.

Where two headings read alike, the source gives them in different places. Where only a bound is given, the exact number is not on record here.

In data set [1] the test system is Aβ42 production by human neuroblastoma SH-SY5Y cells. Nature of the data set: Aβ42 production by SH-SY5Y cells, sandwich ELISA of conditioned medium. The conditions noted are these: for activity in reducing the production of Aβ42 (in words): cell-based assay. For orientation: ELISA stands for enzyme-linked immunosorbent assay.
Protocol: We used the human Neuroblastoma SH-SY5Y cells for drug testing as a model for Aβ42 production. The cells were cultured in Dulbecco's modified Eagle's medium or Dulbecco's modified Eagle's medium/Ham's F-12 medium supplemented with 10% fetal bovine serum, 100 units/ml penicillin, and 100 μg/ml streptomycin in a humidified atmosphere of 95% air, 5% CO2 at 37° C. as per suppliers instructions. […] Cell toxicity was monitored using the MTT assay and all data reported are corrected for any cell loss.
Sandwich Enzyme-Linked Immunosorbent Assay (sELISA) for Quantization of Aβ42:
The capture antibody, detection antibody and secondary antibody as well as standard purified preparations of Aβ42 were obtained from Sigma-Aldrich. Cells were cultured for 24 h in the presence or absence of compounds and the conditioned medium was subjected to sELISA.
Data set [2] in a line: In vivo pharmacokinetics (plasma and brain niacin and eugenol by HPLC). On the set-up: species or system male Swiss Albino mice. To be noted: male, Swiss Albino, mouse. As to the method: In vivo pharmacokinetic (PK) studies were conducted in male Swiss Albino mice. Niacin-Eugenol physical mixture or Niacin-Eugenol hybrid cocrystal was administered to the animals at a dose of 0.73 mmol/kg orally (n=2 mice per time point). […] Plasma was separated by centrifugation at 4000 rpm for 10 minutes and stored in ice for analysis. Animals were sacrificed at the above time points; and brains were excised, snap frozen in liquid nitrogen and stored at −80° C. Samples were analyzed by high-performance liquid chromatography (HPLC) with UV detection. […] The precipitated proteins were removed by centrifugation at 15000 rpm at 5° C. for 10 min. The supernatant was collected in HPLC vials and kept at 4° C. for analysis. 200 mg of the brain tissue was homogenized in Acetonitrile. The resultant homogenate was centrifuged at 15000 rpm for 10 minutes at 4° C. […] Pharmacokinetic parameters were calculated using WinNonLin v5.2 software. The plasma and brain samples were analyzed for Niacin and Eugenol concentrations using HPLC under the conditions shown below: […]

For data set [3], the system named is human APP overexpressing Drosophila. Nature of the data set: Survival of human APP overexpressing Drosophila transgenic model. The data set is classed as in vivo, Drosophila melanogaster. The conditions noted are these: 100 mg/kg body weight/day with the food. As to the method: The effect of cocrystal of niacin-eugenol/eugenol was tested in a Drosophila model which over expresses the human APP protein. The creation of the APP over expressing flies and other methods for these studies are as described previously by Greeve et al (See J. Neuroscience, 2004, 24:3899-3906). The targeted over/ectopic expression of APP in the brain using UAS promoter driven APP transgene, induced by a specific GAL4 trans-driver in the Drosophila model system was used. Adult flies, a total of 80 flies (4 males and 4 females per tube, 10 tubes) were fed right after their emergence and the survival was examined until the end of 9th day. The drugs to be tested were delivered with the food.

Setting [4] is: Homo sapiens, SH-SY5Y, read-out: IC50 (μM) in cell based abeta assay.

Regarding `COc1cc(C(C)=O)ccc1OC(=O)c1cccnc1` [Niacin-apocynin hybrid], in data set [1] (setting [4]), the IC50 was determined as 25.3 µM.

On to `CCCc1ccc(OC(=O)c2cccnc2)c(OC)c1` [Niacin-dihydro eugenol hybrid], for which the IC50 in data set [1] (read-out: IC50 (μM) in cell based abeta assay, blocking Aβ42 secretion) was > 50 µM.

For the compound `COc1cc(CC2CO2)ccc1OC(=O)c1cccnc1` (stereo not drawn) [Niacin-eugenol epoxide hybrid], the half-inhibitory concentration (IC50) in data set [1] (setting [4]) came out at 17.5 µM.

On to `C=CCc1ccc(OC(=O)c2cccnc2)c(OC)c1` [Niacin-eugenol hybrid, Nicotinic acid 4-allyl-2-methoxy-phenyl ester], for which the IC50 in data set [1] (setting [4]) came to 14 µM. For the same compound, the figures for the “activity in reducing the production of Aβ42 (in words)” value in data set [1] and in data set [1] (listed as niacin-eugenol ester linked hybrid) were “most active among the series” and “most potent”, respectively. The “increase in Tmax for eugenol compared to physical mixture” value in data set [2] stood at 4 fold.

Regarding `COc1cc(/C=C/C(=O)O)ccc1OC(=O)c1cccnc1` [Niacin-ferulic acid hybrid], in data set [1] (setting [4]), the IC50 was > 50 µM.

For `COc1ccc(/C=C\C(=O)O)cc1OC(=O)c1cccnc1` [Niacin-isofreulic acid hybrid], the half-inhibitory concentration (IC50) in data set [1] (setting [4]) was determined as 36.8 µM.

As to `COc1cc(C=O)ccc1OC(=O)c1cccnc1` [Niacin-vanillin hybrid, Nicotinic acid 4-formyl-2-methoxy-phenyl ester], the IC50 in data set [1] (setting [4]) is 44.6 µM.

For the compound `O=C(O)c1cccnc1` [niacin, pyridine-3-carboxylic acid], the “reduction of niacin IC50 in the presence of cinnamic acid” value in data set [1] (5 μM cinnamic acid versus niacin alone) was “about 15%”. Moreover, the “reduction of niacin IC50 in the presence of curcumin” value in data set [1] (5 μM curcumin versus niacin alone) is listed as “about 27%”. In addition, the “reduction of niacin IC50 in the presence of eugenol” value in data set [1] (5 μM eugenol versus niacin alone) was “about 45%”. Besides, the “reduction of niacin IC50 in the presence of meclofenamic acid” value in data set [1] (5 μM meclofenamic acid versus niacin alone) is on record as “about 33%”. Besides, the “inhibitory effect of niacin on Aβ42 levels in the media” value in data set [1] (5 and 10 μM niacin) was “good effect”. The “inhibition of Aβ42 levels in the media” value in data set [1] (25 and 50 μM niacin) was determined as 100%. Also, the IC50 was 9.8 µM in data set [1] (Homo sapiens, SH-SY5Y, read-out: IC50 of niacin in the presence of cinnamic acid, in the presence of 5 μM of cinnamic acid); 7.5 µM in data set [1] (Homo sapiens, SH-SY5Y, read-out: IC50 of niacin in the presence of curcumin, in the presence of 5 μM of curcumin); 5.9 µM in data set [1] (Homo sapiens, SH-SY5Y, read-out: IC50 of niacin in the presence of eugenol, in the presence of 5 μM of eugenol); 7 µM in data set [1] (Homo sapiens, SH-SY5Y, read-out: IC50 of niacin in the presence of meclofenamic acid, in the presence of 5 μM of meclofenamic acid); 10.6 µM in data set [1] (Homo sapiens, SH-SY5Y, read-out: IC50 of niacin's inhibitory effect on Aβ42 production, niacin alone, SH-SY5Y cells, overnight incubation); ~10.2 µM in data set [1] (read-out: IC50 of niacin's inhibitory effect on Aβ42 production, niacin alone, SH-SY5Y cells, overnight incubation).

As for `Oc1ccc(C=Cc2cc(O)cc(O)c2)cc1` [resveratrol], the “effect on survival compared to untreated flies” value in data set [3] (early time points) is recorded as “modest effect”. The “effect on number of surviving flies compared to untreated flies” value in data set [3] (end of 9th day (FIG. 7)) is given as “no statistically different effect”.
